The record followed here is patent US6436908B1, “Use of exogenous β-adrenergic receptor and β-adrenergic receptor kinase gene constructs to enhance myocardial function” (Duke University, priority 1995, dated 2002).

Read-outs that look alike come from different tables or passages of the source.

The target in series [1] is adenylyl cyclase. Format: biochemical, mouse. The conditions noted are these: for EC50: read-out: EC50 of isoproterenol-stimulated adenylyl cyclase activity; for NaF stimulated cyclase activity, mean (±SD): 10 mM NaF. The protocol: FIG. 4. Adenylyl Cyclase Activity. Membranes were prepared from TG4 hearts and nontransgenic litter mate control hearts as described in FIG. 2. […] Each point on the graph represents the mean±SEM of seven independent experiments each performed in duplicate.
The inotropic response resulting from myocardial β-AR stimulation is mediated through activation of adenylyl cyclase and the intracellular second messenger cAMP. To assess whether the myocardium of transgenic animals overexpressing β2-AR had enhanced adenylyl cyclase activity, myocardial membranes were incubated with [^32P]ATP and the rate of cAMP formation was measured.

Series [2] deals with isolated atria. The experiment in a line: Isometric tension development in isolated atria. Conditions: TG4 atria, doses maximally stimulating controls. On the set-up: species or system mouse. The protocol: FIGS. 5A-C. Baseline and maximally stimulated responses in isolated atria. Atria were suspended under optimal resting tension in modified Kreb's bicarbonate solution at 30° C. […]. Data are shown as the mean values±SEM for control animals (n=7 or 8) and TG4 animals (n=5 or 6). In all three responses, the baseline values for the TG4 animals were greater than the baseline in the control animals (* P<0.05 Student's t-test), but not different from either control isoproterenol-stimulated values or from TG4 isoproterenol-stimulated values.
To directly assess the effect of β2-AR overexpression on myocardial inotropy, isometric tension development was determined in isolated, perfused atria. […] In the left atria, basal tension was approximately three times that of the control levels. Baseline isometric tension in the transgenics was not different from the maximal isoproterenol-stimulated tension in control atria. […] To eliminate the possibility that this increased rate might be contributing to the increased tension measured in the transgenic myocardium, experiments were conducted to assess the relationship of rate to developed tension. From a rate of 240 to 360 beats/min. […] All atria studied were weighed, and no significant differences were noted between transgenic and control weights.

Series [3] has as its system left ventricular function. Description: In vivo assessment of left ventricular function, TG4 and control mice. Also noted: species or system mouse.
The subject of series [4] is left ventricular function. The experiment in a line: In vivo assessment of left ventricular function, TGβK12 and TGMini27 mice. On the set-up: species or system mouse. Conditions: for mean LV dP/dtmax (maximum contractility): 500 pg isoproterenol; for mean LV dP/dtmin (maximum LV relaxation): 1000 pg isoproterenol. The protocol:
FIG. 12. In vivo assessment of left ventricular function of TGβK12 (n=10) and nontransgenic control mice (n=10). Animals were anesthetized and aortic and left ventricular catheters placed (28). […]; (B) LV dP/dtmin; (C) heart rate (HR); and (D) LV systolic pressure. Data are reported as means±SEM and were analyzed with a two way analysis of variance (ANOVA) with post hoc testing performed using Scheffe's F test (*, P<0.05). […]; (B) dP/dtmin, P<0.05; (C) HR, P<0.01 but not (D) LV systolic pressure, P=ns.
FIG. 13. In vivo assessment of left ventricular function of TGMini27 (n=7) and nontransgenic control mice (n=7). Mice were treated as in FIG. 4 (28) and four parameters are shown; (A) LV dP/dtmax,; (B) LV dP/dtmin; (C) HR; and (D) LV systolic pressure. Data are reported as mean±SEM and were analyzed as in FIG. 4 (*, P<0.05). […]; (B) dP/dtmin, P<0.005; and (D) LV systolic pressure, P<0.005.
Mice were anesthetized with a mixture of ketamine and xylazine (Milano et al., Science 264, 582 (1994)). A cervical incision was made, the trachea intubated and the animal connected to a volume-cycled ventilator. A carotid artery was then cannulated with a flamestretched PE 50 catheter connected to a modified P50 statham transducer. […]. Continuous pressures were recorded on an eight channel chart recorder and in digitized form on computer disk for beat averaging. Ten sequential beats were averaged for each measurement.

Series [5] deals with T1, β1-AR (Mus musculus, UniProt P34971).
T1 construct: Sarcolemmal membranes were prepared from control mouse hearts; from tissue; host or cells: sarcolemmal membranes of control mouse hearts (A3), and of control and TGβK12 mouse hearts (A4)
T1 sequence (P34971 whole entry): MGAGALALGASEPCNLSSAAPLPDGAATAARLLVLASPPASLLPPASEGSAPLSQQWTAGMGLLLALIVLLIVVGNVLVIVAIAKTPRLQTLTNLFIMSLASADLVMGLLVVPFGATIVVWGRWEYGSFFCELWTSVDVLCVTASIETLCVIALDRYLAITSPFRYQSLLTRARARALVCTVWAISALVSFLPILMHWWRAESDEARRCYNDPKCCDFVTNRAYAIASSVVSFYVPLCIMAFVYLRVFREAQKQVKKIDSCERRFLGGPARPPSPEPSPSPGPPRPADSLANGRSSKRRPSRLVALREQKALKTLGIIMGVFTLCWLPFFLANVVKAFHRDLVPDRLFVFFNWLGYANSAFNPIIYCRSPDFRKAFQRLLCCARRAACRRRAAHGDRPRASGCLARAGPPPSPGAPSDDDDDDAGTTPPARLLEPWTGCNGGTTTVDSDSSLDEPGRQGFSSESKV
Description: ICI 118,551 competition binding against [125I]cyanopindolol, control heart sarcolemmal membranes, low affinity component. The protocol: Myocardial sarcolemmal membranes were prepared by homogenizing whole hearts in ice-cold buffer A [50 mM HEPES (pH 7.3), 150 mM KCl, 5 mM EDTA]. Nuclei and tissue were separated by centrifugation at 800×g for 10 min and the crude supernatant was then centrifuged at 20,000×g for 10 min. The subsequent pellet was resuspended in buffer A and centrifuged at 20,000×g for 10 min. The final pellet was resuspended at a concentration of 2-3 mg protein per ml in buffer B [50 mM HEPES (pH7.3), 5 mM MgCl2].

In series [6] the test system is left ventricular function. The experiment in a line: LV dP/dtmax before and after systemic β2-AR antagonist. Format: in vivo, mouse. The text has this: FIG. 7. Effect of administering β-AR antagonist. […] Asterisks indicate p<0.05, paired Student's T-test.
Series [7] has as its target Gβγ. Description: cell-based or functional assay.
The subject of series [8] is βARK. The experiment in a line: GRK activity of heart extracts, rhodopsin phosphorylation assay. The series is classed as biochemical, mouse. The conditions noted are these: TGMini27 heart extracts, 50 μg protein, ~10 pmoles Gβγ, n=5.
Series [9] concerns the target Gβγ.

As usually defined, the EC50 is the concentration needed to bring the measured effect to its halfway point. In the case of `CC(C)NCC(O)c1ccc(O)c(O)c1` (stereo not shown) [isoproterenol], the EC50 in series [1] (TG4 heart membranes) worked out at 22 nM; in series [1] (nontransgenic control heart membranes), 160 nM. For the same molecule, the “inotropic response of atria (isometric tension)” value in [2] is “no further inotropic response”. In series [3] (control animals, isoproterenol infusion), the “change in LV dP/dtmax” value is on record as “progressive increases”. In series [3] (doses greater than 1 nanogram), the “effect on blood pressure” value was “significant lowering of blood pressure”. For the same molecule, in [4] (TGMini27 mice versus controls), the “left ventricular responses to isoproterenol” value is on record as “markedly enhanced”. Further, the “mean LV dP/dtmax (maximum contractility)” value is 10,821 mm Hg per sec in series [4] (TGMini27 mice) and 6457 mm Hg per sec in series [4] (TGβK12 mice). The “mean LV dP/dtmin (maximum LV relaxation)” value is reported as −8071 mm Hg per second in series [4] (TGMini27 mice) and −4350 mm Hg per second in series [4] (TGβK12 mice). Besides, in series [4] (TGβK12 animals versus controls), the “inotropic and chronotropic responses to isoproterenol” value is “significantly reduced”.

A word on the Ki: it is the equilibrium dissociation constant of an inhibitor or competing ligand from its target. Low values mean a stronger hold on the target, high ones a looser hold on the target. `Cc1ccc(OCC(O)C(C)NC(C)C)c2c1CCC2` (stereo not shown) [ICI 118,551] gave an inhibition constant Ki in [5] of 390 nM. The “effect on the β1-AR binding component” value in series [5] (75 nM ICI 118,551) is on record as “insignificantly affecting”. In [5] (control mouse heart sarcolemmal membranes), the “share of low affinity binding population (β1 subtype)” value came out at 75%. Besides, the “change in elevated baseline LV dP/dtmax” value in [6] (TG4 transgenic mice, 5 μg systemic, four minutes after administration) was “Marked decreases”. For the same molecule, the “change in LV dP/dtmax” value in series [6] (control animals) is recorded as “no significant change”.

In [7], “βARK1-(495-689) Minigene (from UniProt P21146 495-689)” had a stimulation of rhodopsin phosphorylation upon addition of Gβγ (~10 pmoles), heart extracts from TGMini27 mice (fold over basal) of 2.16.

Turning to `[F-].[Na+]` [NaF], the “NaF stimulated cyclase activity, mean (±SD)” value in series [1] (control membranes) was 606.4±207.8 pmol cAMP/min/mg protein; in series [1] (transgenic (TG4) membranes) it was 445.5±165.5 pmol cAMP/min/mg protein.

B1: βARK1-(495-689) Minigene: coding sequence for the last 194 amino acids of bovine βARK1; expressed soluble protein, in vivo βARK inhibitor (protein)
chain: GIKLLDSDQELYRNFPLTISERWQQEVAETVFDTINAETDRLEARKKTKNKQLGHEEDYALGKDCIMHGYMSKMGNPFLTQWQRRYFYLFPNRLEWRGEGEAPQSLLTMEEIQSVEETQIKERKCLLLKIRGGKQFVLQCDSDPELVQWKKELRDAYREAQQLVQRVPKMKNKPRSPVVELSKVPLIQRGSANGL
In the case of B1, the “baseline LV dP/dtmax, LV dP/dtmin and LV systolic pressure compared to control animals” value in series [4] (TGMini27 mice, baseline) is listed as “statistically elevated”. Also, the “stimulation of rhodopsin phosphorylation by Gβγ” value in [8] turned out to be 2.16±0.12 fold over basal.

B2: myocardial βARK (protein)
chain: MADLEAVLADVSYLMAMEKSKATPAARASKKILLPEPSIRSVMQKYLEDRGEVTFEKIFSQKLGYLLFRDFCLNHLEEAKPLVEFYEEIKKYEKLETEEERVVRSREIFDSYIMKELLACSHPFSKNATEHVQGHLVKKQVPPDLFQPYIEEICQNLRGDVFQKFIESDKFTRFCQWKNVELNIHLTMNDFSVHRIIGRGGFGEVYGCRKADTGKMYAMKCLDKKRIKMKQGETLALNERIMLSLVSTGDCPFIVCMSYAFHTPDKLSFILDLMNGGDLHYHLSQHGVFSEADMRFYAAEIILGLEHMHNRFVVYRDLKPANILLDEHGHVRISDLGLACDFSKKRPHASVGTHGYMAPEVLQKGVAYDSSADWFSLGCMLFKLLRGHSPFRQHKTKDKHEIDRMTLTMAVELPDSFSPELRSLLEGLLQRDVNRRLGCLGRGAQEVKESPFFRSLDWQMVFLQKYPPPLIPPRGEVNAADAFDIGSFDEEDTKGIKLLDSDQELYRNFPLTISERWQQEVAETVFDTINAETDRLEARKKAKNKQLGHEEDYALGKDCIVHGYMSKMGNPFLTQWQRRYFYLFPNRLEWRGEGEAPQSLLTMEEIQSVEETQIKERKCLLLKIRGGKQFVLQCDSDPELVQWKKELRDAYREAQQLVQRVPKMKNKPRSPVVELSKVPLIQRGSANGL
Take B2: the “stimulation of rhodopsin phosphorylation upon addition of Gβγ (~10 pmoles), control heart extracts” value in [9] is on record as 3.02±0.31 fold over basal, n=5.
